Laboratory results taken from patent publication US8426568B2 (University of Virginia Patent Foundation, priority 2006, dated 2013).
In brackets after ≈: the same amount, converted by molar mass. Read-outs that look alike come from different tables or passages of the source.

Experiments:
[1] = biological target: recombinant, constitutively active RSK2 (Homo sapiens, UniProt P51812); assay: in vitro RSK kinase assay; format: biochemical; conditions: 10 μM ATP, 30 min, read-out: IC50 for inhibition of RSK catalytic activity in vitro
Chain of recombinant, constitutively active RSK2 (P51812 1-397 limits assumed): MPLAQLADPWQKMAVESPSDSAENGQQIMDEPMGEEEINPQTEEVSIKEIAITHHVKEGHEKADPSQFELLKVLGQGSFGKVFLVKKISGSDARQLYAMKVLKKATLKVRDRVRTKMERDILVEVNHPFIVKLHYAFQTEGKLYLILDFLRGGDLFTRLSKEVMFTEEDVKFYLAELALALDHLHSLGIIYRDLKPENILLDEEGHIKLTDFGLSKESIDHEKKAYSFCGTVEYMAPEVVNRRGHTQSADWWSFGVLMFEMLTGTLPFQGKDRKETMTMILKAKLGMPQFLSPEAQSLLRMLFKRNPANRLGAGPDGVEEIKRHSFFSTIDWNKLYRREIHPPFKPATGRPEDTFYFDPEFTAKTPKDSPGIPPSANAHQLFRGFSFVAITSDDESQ

[2] = test system: MCF-7 cells; assay: MCF-7 cell proliferation (CellTiter-Glo); format: cell-based, human; conditions: for inhibition of MCF-7 cell proliferation at 50 μM: 72 h
Description: (2A) The potency of purified compounds in inhibiting RSK catalytic activity in vitro was measured. Kinase assays were performed using immobilized substrate. The reactions were initiated by the addition of 10 μM ATP (final concentration). Reactions were terminated after 30 min. All assays measured the initial reaction velocity. The extent of phosphorylation was determined using phosphospecific antibodies in combination with HRP-conjugated secondary antibodies. HRP activity was measured as described in the Experimental. Maximum and minimum activity is the relative luminescence detected in the presence of vehicle and 200 mM EDTA, respectively. Points, mean (n=2 in triplicate); bars=SD. (2B) The potency of purified compounds as inhibitors of MCF-7 cell proliferation was determined. […] Values given are the fold proliferation. Points, mean (n=3 in quadruplicate); bars=SD.
(§1) The cell number was measured after 48 h of treatment. Values given are the fold proliferation as a percentage of that observed with vehicle-treated cells. Points, mean (n=2 in quadruplicate); bars=SD.
(§2) For proliferation studies cells were seeded at 5000 cells per well in 96 well tissue culture plates in the appropriate medium as described by American Type Culture Collection. After 24 hours, the medium was replaced with medium containing compound or vehicle as indicated. Cell viability was measured at indicated time points using CellTiter-Glo™ assay reagent (Promega, Madison, Wis.) according to manufacturer's protocol. Maximum responses and the concentrations of half the effective response (EC50) were determined by performing a best-fit analysis of the data (GraphPad Prism). For specificity studies, cells were seeded at 3×10^5 cells/well in 6 well plates. After 24 hours, the cells were serum-starved for 24 hours then incubated with compound or vehicle for 4 hours prior to a 20 minute treatment with PDB. Cells were lysed with boiling SDS-sample buffer without dithiothreitol (DTT). The lysates were normalized for total protein, and DTT was added to an aliquot, which was electrophoresed and immunoblotted. Antibodies used on cell lysates included anti-pan-MAPK (anti-ERK1/2) (610124) from BD Transduction Laboratories; anti-phospho-MAPK (V8031) from Promega; anti-eEF2 (2332), anti-phospho-eEF2 (2331), anti-phospho-Akt Substrate (9611), anti-phospho-PKA Substrate (9621), and anti-phospho-PKC Substrate (2261) from Cell Signaling Technology. Anti-Ran was a generous gift from Ian Macara (University of Virginia).

[3] = test system: MCF-10A cells; assay: MCF-10A cell proliferation (CellTiter-Glo); format: cell-based, human; conditions: 48 h treatment
Description: as §1
as §2, with “Antibodies used on cell lysates included anti-pan-MAPK (anti-ERK1/2) (610124) from BD Transduction Laboratories; anti-phospho-MAPK (V8031) from Promega; anti-eEF2 (2332), anti-phospho-eEF2 (2331), anti-phospho-Akt Substrate (9611), anti-phospho-PKA Substrate (9621), and anti-phospho-PKC Substrate (2261) from Cell Signaling Technology. Anti-Ran was a generous gift from Ian Macara (University of Virginia).” left out

[4] = test system: MAPK; assay: PDB-stimulated MAPK activation in MCF-7 cells (anti-active MAPK immunoblot); format: cell-based, human; conditions: serum-deprived MCF-7; 4 h pre-incubation; 500 nM PDB 20 min
Description: (3A) The potency of the synthesized compounds in inhibiting RSK catalytic activity in vitro was measured as described in FIG. 2A and is graphically illustrated. (3B) Represents an images of immunoblots where serum-deprived MCF-7 cells were pre-incubated with vehicle, or the indicated concentration of inhibitor for 4 h. Cells were treated with 500 nM PDB or vehicle for 20 min prior to lysis. Protein concentration of lysates was measured and lysates were electrophoresed, transferred and immunoblotted.
For proliferation studies cells were seeded at 5000 cells per well in 96 well tissue culture plates in the appropriate medium as described by American Type Culture Collection. After 24 hours, the medium was replaced with medium containing compound or vehicle as indicated. Cell viability was measured at indicated time points using CellTiter-Glo™ assay reagent (Promega, Madison, Wis.) according to manufacturer's protocol. Maximum responses and the concentrations of half the effective response (EC50) were determined by performing a best-fit analysis of the data (GraphPad Prism). For specificity studies, cells were seeded at 3×10^5 cells/well in 6 well plates. After 24 hours, the cells were serum-starved for 24 hours then incubated with compound or vehicle for 4 hours prior to a 20 minute treatment with PDB. Cells were lysed with boiling SDS-sample buffer without dithiothreitol (DTT). […]

[5] = test system: PKA, PKC and AKT; assay: phosphorylation patterns in MCF-7 cells with phospho-PKA, -PKC, -AKT substrate antibodies (specificity); format: cell-based, human; conditions: pre-incubation before PDB
Description: MCF-7 cell lysates normalized for protein concentration were electrophoresed, transferred and immunoblotted with anti-phospho-PKA substrate, anti-phospho-PKC substrate or anti-phospho-AKT substrate.
as §2
The lysates were immunoblotted with multiple phospho-specific substrate antibodies.

[6] = calculated LogP (Molinspiration Property Calculation Service); conditions: relative to SL0101, from calculated LogP
Description: Reagents and solvents were reagent grade and used without further purification. Methylene chloride was distilled from calcium hydride. Anhydrous grade THF was purchased from VWR. All reactions involving air or moisture sensitive reagents or intermediates were performed under a nitrogen or argon atmosphere. Flash chromatography was performed using Silicycle 40-60 mesh silica gel. Analytical TLC was performed using 0.25 mm EM silica gel 60 […] plates that were visualized by irradiation (254 nm) or by staining with Hanessian's stain (cerium molybdate). Optical rotations were obtained using a Jasco digital polarimeter. ^1H and ^13C NMR spectra were obtained using 300 MHz and 500 MHz Varian instruments. Chemical shifts are reported in parts per million (ppm δ) referenced to the residual ^1H resonance of the solvent (CDCl3, 7.26 ppm; DMSO-d6, 2.49 ppm). ^13C spectra were referenced to the residual ^13C resonance of the solvent (CDCl3, 77.3 ppm; DMSO-d6, 39.5 ppm). Splitting patterns are designated as follows: s, singlet; br, broad; d, doublet; dd, doublet of doublets; t, triplet; q, quartet; m, multiplet. High resolution mass spectra were obtained at the Michigan State University-NIH Mass Spectrometry Facility. LogP values were calculated using Molinspiration Property Calculation Service (see their website).

[7] = maximum solubility in tissue culture media; format: physicochemical; conditions: aqueous buffer
[8] = test system: RSK; assay: eEF2 phosphorylation in PDB-stimulated MCF-7 cells (RSK activity in intact cells); format: cell-based, human; conditions: serum-deprived MCF-7; 4 h pre-incubation; 500 nM PDB 20 min
Description: Therefore, the phosphorylation state of eEF2 during mitogenic stimulation is an indicator of RSK activity.

[9] = test system: MCF-7 cells; conditions: cited from earlier work
[10] = test system: MCF-10A cells; conditions: background; cited from earlier work
[11] = compounds purified from F. refracta

Compound: CC(=O)OC1C(C)OC(Oc2c(-c3ccc(O)cc3)oc3cc(O)cc(O)c3c2=O)C(OC(C)=O)C1O [2″,4″-di-O-acetyl-SL0101, kaempferol 3-O-(2″,4″-di-O-acetyl-α-L-rhamnopyranoside)]
- IC50 [1, 11]: ~260 nM
- inhibition of MCF-7 cell proliferation at 50 μM [2]: similarly effective at inhibiting MCF-7 cell growth

Compound: CC(=O)OC1C(C)OC(Oc2c(-c3ccc(O)cc3)oc3cc(O)cc(O)c3c2=O)C(O)C1O [4″-mono-O-acetyl-SL0101, kaempferol 3-O-(4″-mono-O-acetyl-α-L-rhamnopyranoside)]
- IC50 [1, 11]: ~140 nM
- inhibition of MCF-7 cell proliferation at 50 μM [2]: did not inhibit MCF-7 cell proliferation

Compound: CCCC(=O)O[C@@H]1[C@@H](OC(=O)CCC)[C@@H](O)[C@H](Oc2c(-c3ccc(O)cc3)oc3cc(O)cc(O)c3c2=O)O[C@H]1C [Bu-SL0101, kaempferol 3-O-(3″,4″-di-O-butyryl-α-L-rhamnopyranoside)]
- IC50 ([1]; synthesized compounds): 212 nM
- EC50 ([2]; Homo sapiens, MCF7, 48 h treatment, read-out: EC50 for inhibition of MCF-7 proliferation): 40000 nM
- concentration at which significant inhibition of MCF-10A proliferation began [3]: 100 µM
- effect on PDB-induced MAPK activation / upstream kinases (MEK, Raf, PKC) [4]: do not inhibit upstream kinases necessary for PDB-induced MAPK activation
- effect on phosphorylation patterns (phospho-PKA, -PKC, -AKT substrate antibodies) [5]: decreased the PDB-induced phosphorylation of a ˜25 kDa protein
- specificity for RSK in intact cells [5]: not specific for inhibition of RSK activity
- increase in hydrophobicity [6]: > 50 fold
- solubility [7]: ~100 µM (≈ 57.3 µg/mL)

Compound: CC(=O)OC1C(C)OC(Oc2c(-c3ccc(O)cc3)oc3cc(O)cc(O)c3c2=O)C(O)C1OC(C)=O [SL0101, kaempferol 3-O-(3″,4″-di-O-acetyl-α-L-rhamnopyranoside), reference compound]
- inhibition of MCF-7 cell proliferation at 50 μM [2]: similarly effective at inhibiting MCF-7 cell growth
- effect on eEF2 phosphorylation after PDB [8]: eliminated PDB-mediated inactivation of eEF2K
- effect on PDB-induced MAPK activation / upstream kinases (MEK, Raf, PKC) [4]: do not inhibit upstream kinases necessary for PDB-induced MAPK activation
- effect on phosphorylation patterns (phospho-PKA, -PKC, -AKT substrate antibodies) [5]: similar
- specificity for RSK in intact cells [5]: demonstrates specificity for RSK in intact cells
- proliferation of the human breast cancer cell line MCF-7 ([9]; background): inhibits proliferation
- EC50 ([9]; previously reported (ref 4), current results in agreement, read-out: EC50 for inhibition of MCF-7 cell proliferation): ~50000 nM
- growth of the normal human breast line MCF-10A [10]: does not prevent the growth

Compound: N#CC(=C(/N)Sc1ccccc1N)/C(C#N)=C(\N)Sc1ccccc1N [U0126, reference compound]
- effect on eEF2 phosphorylation after PDB [8]: levels of eEF2 phosphorylation also remained increased
- effect on phosphorylation patterns (phospho-PKA, -PKC, -AKT substrate antibodies) [5]: PDB-induced phosphorylation is inhibited
